Earlier results in patent US4795743A, “2'-deamino-2'-hydroxyistamycin Bo derivatives of low toxicity” (Zaidan Hojin Biseibutsu Kagaku Kenkyu Kai, priority 1986, dated 1989).

Test system: resistant bacteria, Pseudomonas aeruginosa, resistant strains of gram-negative and gram-positive bacteria
Settings: background, earlier filings; cited from earlier work

Question: Which antibacterial activity does the source give for `CNCC1CCC(N)C(OC2C(N)CC(O)C(N(C)C(=O)CN)C2O)O1` (stereo not shown) [3-O-demethylistamycin B] here?
Answer: active against resistant bacteria, Pseudomonas aeruginosa and also against a variety of resistant strains of gram-negative and gram-positive bacteria
